EP0642343B1, “Acridine carboxamides for the treatment of cancer” (XENOVA LIMITED, priority 1992, dated 1993)
Where two headings read alike, the source gives them in different places.

Assays:
[1] = system: subcutaneous melanoma xenografts growing in nude mice; settings: summary given by Berger et al.; cited from earlier work
human cell lines = assay: Cytotoxicity under continuous drug exposure, mean over human cell lines; type: cell-based; settings: read-out: mean IC50 value for human cell lines
Protocol: The latter value compared with 2 µM for the 4-pyridyl-quinoline analogue, 0.76 µM for amsacrine, 0.1 µM for the amsacrine analogue 4'-(9-[4-[N-methylcarboxamido]-5-methyl]-acridinylamino)-methanesulphon-m-anisidide ("CI-921") and 81 µM for etoposide.

[2] = system: primary human melanoma cultures; assay: cells; settings: for IC50: Homo sapiens, read-out: mean IC50
Protocol: Acridine carboxamide hydrochloride, synthesised in the Cancer Research Laboratory (Atwell G.J., et al., J.Med. Chem. 1987, 30, 664-669), and amsacrine isethionate, obtained from the Parke-Davis Division of the Warner-Lambert Company, Ann Arbor, USA, were dissolved in 50% v/v aqueous ethanol to make stock solutions of 2-5 mmol/l and stored at -20°C. Other cytotoxic drugs were available either from the NCI repository (Monks A., et al., J. Natl. Cancer Inst. 1991, 83, 757-766) or were obtained as described in Marshall E.S., et al., J. Natl. Cancer Inst. 1992, 84, 341-344 and Finlay, et al., Eur. J. Cancer din. Oncol. 1986, 22, 655-662. Cell lines were from the NCI repository except for MM-96 (Dr. R. Whitehead, Ludwig Institute, Melbourne, Australia), FME (Dr. K.M. Tveit, Norwegian Radium Hospital, Oslo, Norway) and Jurkat normal and multidrug-resistant lines (Dr. K. Snow and Dr. W. Judd, Department of Cellular and Molecular Biology, University of Auckland). Melanoma tissue was obtained from patients with pathologically confirmed metastatic and recurrent melanomas under Auckland Hospital Ethical Committee guidelines. Cells were released by digestion of tissue (at 50 mg.ml^-1) with collagenase (1 mg.ml^-1) and DNAase (50 µg.ml^-1) with continuous stirring at 37°C for 1 to 2 hours, and cultured as previously described (Marshall E.S., et al., J. Natl. Cancer Inst. 1992, 84, 341-344).
(§1) Tumour cell lines were cultured in 96-well plates. Growth of NCI cell lines was assessed using sulpho-rhodamine B staining (Skehan P., et al., J. Natl. Cancer Inst. 1990, 82, 1107-1112), that of the leukaemia lines with (4,5-dimethylthiazole-2-yl)-2,5-diphenyltetrazolium (MTT) staining (Mosmann T., J. Immun. Methods 1983, 65, 55-63) and that of the primary human tumour material by ^3H-thymidine incorporation (Marshall E.S., et al., J. Natl. Cancer Inst. 1992, 84, 341-344). Primary tumour material was cultured in 96-well plates in which the wells were coated with agarose to inhibit selectively the growth of normal cells. (Marshall E.S., et al., J. Natl. Cancer Inst. 1992, 84, 341-344). Primary cultures were incubated at 37°C in sealed perspex boxes containing a humidified atmosphere of 5% CO2 and 5% O2 in nitrogen for 7 days. 5-Methyl-[^3H]-thymidine (20 Ci.mmol^-1; 0.04 µCi per well), thymidine and 5-fluorodeoxyuridine (each at final concentrations of 0.5 µM) were added in medium to cultures (20 µl per well) 24 h before terminating the cultures. Cells were aspirated on to glass fibre filters using a multiple automated sample harvester (LKB Wallac OY Beta Harvester). The filter discs were washed for 15 seconds with water, dried, and the amount of tritium retained quantified by liquid scintillation.
(§2) IC50 values were defined as in Paull K.D., et al., J. Natl. Cancer Inst. 1989, 81:1088-1092, where growth, as indicated by staining or thymidine incorporation, corresponded to 50% of that of the control cultures. […] Variances of DELTA values were expressed as standard deviations in log10 units. Comparison of DELTA values was made using Pearson correlation coefficients. Resistance factors were defined as the ratios of IC50 values between the resistant line and the parent line. Statistical evaluation was performed either with NCI programmes, with RS/1 software (BBN Research Systems, Cambridge, MA, USA), or with Sigmaplot (Jandel Scientific, San Rafael, CA, USA).
DACA was also compared in a series of 12 primary melanoma cultures. Tissue was excised from human malignant melanomas and cultured using a modified 96-well assay system in which the cells were cultured on agarose and assayed for proliferation using the ^3H-thymidine incorporation assay as described in Marshall E.S., et al., J. Natl. Cancer Inst. 1992, 84, 341-344.

B1D = assay: Resistance factor, drug-resistant Jurkat leukaemia subline; type: cell-based, human
Protocol: as §1, §2
(§3) The effect of DACA on the growth of cultured cells was assessed by continuous drug exposure. […] Four multidrug-resistant cell lines, developed from JL and JB1 by in vitro exposure to increasing concentrations of doxorubicin (LD and B1D) or amsacrine (LA and B1A) (Finlay G.J., et al., J. Natl. Cancer Inst. 1990, 82, 662-667, Snow K., et al., Br. J. Cancer 1991, 63, 17-28) were tested.
(§4) DACA was compared with six other drugs including four topo II poisons, doxorubicin, mitozantrone, etopo-side and amsacrine. […]

LD = assay: as above; type: cell-based, human
Protocol: as §1, §2, §3, §4

LA = assay: as above; type: cell-based, human
Protocol: as §1, §2, §3, §4

B1A = assay: as above; type: cell-based, human
Protocol: as §1, §2, §3, §4

[3] = system: panel of cell lines encompassing a number of tumour types; assay: NCI cell line panel, growth inhibition by protein staining; type: cell-based; settings: data provided by the National Cancer Institute
Protocol: as §1, §2

[4] = system: advanced colon 38 tumours; assay: Tumour growth delay, advanced subcutaneous colon 38 tumours in mice; type: in vivo
Protocol: Colon 38 carcinoma was obtained from the Mason Research Institute (Worchester, MA, USA) and was grown in BDF1 hosts. Tumour fragments (1 mm^3) were implanted subcutaneously in anaesthetised mice. Tumours had grown to the appropriate size 9 days after implantation. A melanoma tumour line (WADH) was developed in the Cancer Research Laboratory. Tumour cells were grown in culture and 1 x 10^6 cells were implanted intradermally into the flank of nude (C57BI/J genetic background) mice. Mice were grown under sterile surroundings until tumours were of appropriate size.
Tumours were measured 3x (colon 38) or 2x (xeno-graft) weekly with callipers and tumour volumes calculated as 0.52a^2b, where a and b were the minor and major tumour axes. Tumour growth delays were measured at a time when tumour volumes of treated and control animals had increased by 4-fold.
The effects of five compounds, • (i) DACA • (ii) N-[2-(dimethylamino)ethyl]-9-methoxyphen-azine-1-carboxamide (compound 28 of J. Med. Chem., 1987, 30, 843-851), • (iii) N-[2-(dimethylamino) ethyl]-2-phenylquino-line-8-carboxamide (compound 6 of J. Med. Chem. 1988, 31, 1048-1052), • (iv) N-[2-(dimethylamino)ethyl]-2-(4-pyridyl)-guinoline-8-carboxamide (compound 18 of J. Med. Chem., 1989, 32, 396-401), and • (v) N-[2-(dimethylamino)ethyl]-9-bromo-dibenzo-[1,4]-dioxin-1-carboxamide (compound 20 of J. Med. Chem. 1992, 35, 258-266) on the growth of advanced colon 38 tumours in mice was investigated by implanting tumour fragments subcutaneously and allowing them to grow until they had reached a diameter of 5-8 mm.

[5] = system: sublines of Jurkat leukaemia cells; assay: Cross-resistance of Jurkat sublines selected for resistance to amsacrine; type: cell-based, human; settings: two lines selected for resistance to amsacrine
Protocol: Two of these lines had been selected for resistance to amsacrine, and were more than 100-fold cross-resistant to amsacrine but only 2- to 4-fold cross-resistant to DACA. […] We believe that this ability to overcome resistance mechanisms accounts for the different IC50 patterns observed with the human cell line panels.
Tumour cell lines were cultured in 96-well plates. […] Primary cultures were incubated at 37°C in sealed perspex boxes containing a humidified atmosphere of 5% CO2 and 5% O2 in nitrogen for 7 days. 5-Methyl-[^3H]-thymidine (20 Ci.mmol^-1; 0.04 µCi per well), thymidine and 5-fluorodeoxyuridine (each at final concentrations of 0.5 µM) were added in medium to cultures (20 µl per well) 24 h before terminating the cultures.
1989, 81:1088-1092, where growth, as indicated by staining or thymidine incorporation, corresponded to 50% of that of the control cultures.

[6] = human, jurkat leukaemia sublines
[7] = B1D (from B1 by exposure to doxorubicin), ratio of IC50 resistant line / parent line
[8] = LD (from L by exposure to doxorubicin), ratio of IC50 resistant line / parent line
[9] = LA (from L by exposure to amsacrine), ratio of IC50 resistant line / parent line
[10] = B1A (from B1 by exposure to amsacrine), ratio of IC50 resistant line / parent line
[11] = 100mg/kg each injection, ip, 2 doses, 0, 60 min
[12] = maximum tolerated dose of the comparison drug

Compound: Mitomycin C
- Percentage of xenografts responding [1]: 32%

Compound: CN(Cc1cnc2nc(N)nc(N)c2n1)c1ccc(C(=O)N[C@@H](CCC(=O)O)C(=O)O)cc1 [Methotrexate]
- Percentage of xenografts responding [1]: 7%

Compound: COc1cc([C@@H]2c3cc4c(cc3[C@@H](O[C@@H]3O[C@@H]5CO[C@@H](C)O[C@H]5[C@H](O)[C@H]3O)[C@H]3COC(=O)[C@H]23)OCO4)cc(OC)c1O [etoposide]
- IC50 (human cell lines): 81000 nM
- Percentage of xenografts responding [1]: 0% (2 studies)
- IC50 [2]: 2200 nM
- proportions of cells killed ([2]; human, primary melanoma cultures): ≤ 90%
- Resistance factors (B1D; [6]): 83
- Resistance factors (LD; [6]): 93
- Resistance factors (LA; [6]): 11
- Resistance factors (B1A; [6]): 22
- IC50 [3]: 21000 nM

Compound: Bleomycin
- Percentage of xenografts responding [1]: 0%

Compound: CN(C)CCNC(=O)c1cccc2ccc(-c3ccncc3)nc12 [(iv), N-[2-(dimethylamino)ethyl]-2-(4-pyridyl)-guinoline-8-carboxamide]
- Growth delay ([4]; 50mg/kg each injection, ip, 2 doses, 0,60 min): 5 days
- IC50 (human cell lines; continuous drug exposure over approx. 5 cell doubling times): 2000 nM

Compound: O=C1c2c(O)ccc(O)c2C(=O)c2c(NCCNCCO)ccc(NCCNCCO)c21 [mitoxantrone]
- Resistance factors (B1D; [7]): 8.4
- Resistance factors (LD; [8]): 160
- Resistance factors (LA; [9]): 42
- Resistance factors (B1A; [10]): 59

Compound: CC[C@]1(O)C[C@H]2CN(CCc3c([nH]c4ccccc34)[C@@](C(=O)OC)(c3cc4c(cc3OC)N(C=O)[C@H]3[C@@](O)(C(=O)OC)[C@H](OC(C)=O)[C@]5(CC)C=CCN6CC[C@]43[C@@H]65)C2)C1 [vincristine]
- Percentage of xenografts responding [1]: 43%
- Resistance factors (B1D; [6]): 10
- Resistance factors (LD; [6]): 3.6
- Resistance factors (LA; [6]): 1.5
- Resistance factors (B1A; [6]): 2.0

Compound: COc1cccc2nc3cccc(C(=O)NCCN(C)C)c3nc12 [(ii), N-[2-(dimethylamino)ethyl]-9-methoxyphen-azine-1-carboxamide]
- Growth delay (days) [4, 11]: 5,5 (2 expts) days

Compound: CC[C@]1(O)C[C@@H]2CN(CCc3c([nH]c4ccccc34)[C@@](C(=O)OC)(c3cc4c(cc3OC)N(C)[C@H]3[C@@](O)(C(=O)OC)[C@H](OC(C)=O)[C@]5(CC)C=CCN6CC[C@]43[C@@H]65)C2)C1 [Vinblastine]
- Percentage of xenografts responding [1]: 10%

Compound: N.N.[Cl][Pt][Cl] [Cisplatin]
- Percentage of xenografts responding [1]: 13%

Compound: COc1cccc2c1C(=O)c1c(O)c3c(c(O)c1C2=O)C[C@@](O)(C(=O)CO)C[C@@H]3O[C@H]1C[C@H](N)[C@H](O)[C@H](C)O1 [doxorubicin]
- Percentage of xenografts responding [1]: 5% (total of 5 studies)
- IC50 [2]: 56 nM
- Resistance factors (B1D; [6]): 15
- Resistance factors (LD; [6]): 16
- Resistance factors (LA; [6]): 3.8
- Resistance factors (B1A; [6]): 11
- IC50 [3]: 140 nM

Compound: CC[C@@]1(O)C(=O)OCc2c1cc1n(c2=O)Cc2cc3ccccc3nc2-1 [camptothecin]
- Resistance factors (B1D; [7]): 0.86
- Resistance factors (LD; [8]): 0.97
- Resistance factors (LA; [9]): 1.0
- Resistance factors (B1A; [10]): 0.48

Compound: CNC(=O)c1cccc2c(Nc3ccc(NS(C)(=O)=O)cc3OC)c3cccc(C)c3nc12 [CI-921, 4'-(9-[4-[N-methylcarboxamido]-5-methyl]-acridinylamino)-methanesulphon-m-anisidide]
- IC50 (human cell lines): 100 nM

Compound: COc1cc(NS(C)(=O)=O)ccc1Nc1c2ccccc2nc2ccccc12 [amsacrine]
- Growth delay [4, 12]: 2 days
- IC50 (human cell lines): 760 nM
- cross-resistance [5]: more than 100 fold
- IC50 [2]: 128 nM
- Resistance factors (B1D; [7]): 8.8
- Resistance factors (LD; [8]): 110
- Resistance factors (LA; [9]): 130
- Resistance factors (B1A; [10]): 240
- IC50 [3]: 520 nM

Compound: CN(C)CCNC(=O)c1cccc2ccc(-c3ccccc3)nc12 [(iii), N-[2-(dimethylamino)ethyl]-2-phenylquino-line-8-carboxamide]
- Growth delay ([4]; 75mg/kg each injection, ip, 2 doses, 0,60 min): 8.5 days

Compound: CN(C)CCNC(=O)c1cccc2c1Oc1c(Br)cccc1O2 [(v), N-[2-(dimethylamino)ethyl]-9-bromo-dibenzo-[1,4]-dioxin-1-carboxamide]
- Growth delay [4, 11]: 7 days

Compound: O=P1(N(CCCl)CCCl)NCCCO1 (centres unmarked) [cyclophosphamide, reference compound]
- Growth delay [4, 12]: 6.5 days
- Percentage of xenografts responding [1]: 11%

Compound: O=c1[nH]cc(F)c(=O)[nH]1 [5-fluorouracil, reference compound]
- Growth delay [4, 12]: 13 days
- Percentage of xenografts responding [1]: 14%
